Laboratory results reported in US20240148821A1, “PHARMACEUTICAL USE OF CYCLIC PEPTIDE COMPOUND” (CHUGAI SEIYAKU KABUSHIKI KAISHA, priority 2021, published 2024).
Numbered stars: 1 amine (or outer) side, 2 acyl side, 3 side chain; on linkers, the order of the positions; unused ones are H or OH. Bridge positions count the residues as written; N and C are the ends. Square brackets hold non-standard residues; d marks the D form. Peptide text beside a SMILES is read from it. * marks the point of attachment. hPhe(3,5-F2-4-CF3) = N[C@@H](CCc1cc(F)c(C(F)(F)F)c(F)c1)C(=O)O; hPhe(3-Cl-4-CF3) = N[C@@H](CCc1ccc(C(F)(F)F)c(Cl)c1)C(=O)O; NEtPhe(4-CF3) = CCN[C@@H](Cc1ccc(C(F)(F)F)cc1)C(=O)O; NMedβ3hAla = C[C@H](CC(=O)[*:2])N(C)[*:1]; X26 = CC(C)=CC[C@H](N[*:1])C(=O)[*:2]; NMeCha = CN[C@@H](CC1CCCCC1)C(=O)O; Hyp = O=C(O)[C@@H]1C[C@@H](O)CN1; NMeChg = CN[C@H](C(=O)O)C1CCCCC1; NMeI = CC[C@H](C)[C@H](NC)C(=O)O; NMeD = CN[C@@H](CC(=O)O)C(=O)O; AllylGly = C=CC[C@H](N)C(=O)O; NMeL = CN[C@@H](CC(C)C)C(=O)O; NMeNle = CCCC[C@H](NC)C(=O)O; NMePra = C#CC[C@H](NC)C(=O)O; NMeV = CN[C@H](C(=O)O)C(C)C; Pip = O=C(O)[C@@H]1CCCCN1; NMeA = CN[C@@H](C)C(=O)O; NMeAib = CNC(C)(C)C(=O)O; Nle = CCCC[C@H](N)C(=O)O; Piperidide = C1CCN(*)CC1; Ac5c = NC1(C(=O)O)CCCC1; Aze = O=C(O)[C@@H]1CCN1; Ac4c = NC1(C(=O)O)CCC1; Sar = CNCC(=O)O

Tests used:
[1] = tested on: Human pancreatic cancer cell line AsPC-1 (G12D mutation Kras); assay: AsPC-1 cell growth inhibition (AsPC-1 CGI); format: cell-based; settings: read-out: AsPC-1 cell growth inhibition, 50% growth inhibitory concentration (IC50 value); 96 hours, CellTiter-Glo, values classified in ranges
Description: Test compounds were serially dilated with dimethyl sulfoxide, and 200 nL was then dispensed to a U-bottom 96-well plate using Labcyte Echo. […] The cell suspension was dispensed to a. plate containing a test compound at 100 μL per well and incubated at 37° C. in a 5% carbon dioxide gas incubator. 96 hours later, 80 μL of CellTiter-Glo (Promega) was added to each well and fluorescence was measured.

[2] = biological target: protein-protein interaction between Kras and SOS1 (biotin-tagged human Kras loaded with GDP, His-tagged human SOS1) (Homo sapiens (Human), UniProt P01116, G12D); assay: Protein-protein interaction inhibition between Kras and SOS1 (KrasG12D-SOS PPI) using AlphaScreen; format: biochemical; settings: AlphaScreen; biotin-tagged human Kras loaded with GDP, His-tagged human SOS1; read-out: KRAS G12D-SOS PPI IC50;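 note: kras produced in E. coli, Ni-coupled donor beads and streptavidin acceptor beads, excitation 680 nm with emission detected at 520–620 nm via singlet oxygen transfer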

Compound	IC50 [1]	IC50 [2]
CC(C)=CC[C@@H]1NC(=O)[C@H](CC(C)C)N(C)C(=O)C[C@@H](C(=O)N2CCCCC2)N(C)C(=O)[C@H](C(C)C)N(C)C(=O)C2(CCCC2)NC(=O)[C@@H]2CCCN2C(=O)[C@H](CCc2ccc(C(F)(F)F)c(Cl)c2)NC(=O)CN(C)C(=O)[C@H](CC2CCCCC2)N(C)C(=O)[C@@H]2CCN2C(=O)[C@H](C)N(C)C1=O [Compound 729] ([NMeL][X26][NMeA][Aze][NMeCha][Sar][hPhe(3-Cl-4-CF3)]P[Ac5c][NMeV][NMeD]-Piperidide; lactam N-11)	> 0.5 µM	0.043 µM
CCCC[C@H]1C(=O)NC2(CCCC2)C(=O)N(C)[C@@H](C2CCCCC2)C(=O)N(C)[C@H](C(=O)N2CCCCC2)CC(=O)N(C)[C@@H](CC(C)C)C(=O)N[C@@H]([C@@H](C)CC)C(=O)N(C)CC(=O)N(C)CC(=O)N(C)[C@@H](CC2CCCCC2)C(=O)N(C)CC(=O)N[C@@H](CCc2ccc(C(F)(F)F)c(Cl)c2)C(=O)N1C [Compound 730] ([NMeL]I[Sar][Sar][NMeCha][Sar][hPhe(3-Cl-4-CF3)][NMeNle][Ac5c][NMeChg][NMeD]-Piperidide; lactam N-11)	> 0.5 µM	0.012 µM
CCO[C@@H]1C[C@H]2C(=O)NC3(CCC3)C(=O)N(C)[C@@H]([C@@H](C)CC)C(=O)N(C)[C@H](C)CC(=O)N(C)[C@@H](CC(C)C)C(=O)N[C@@H]([C@@H](C)CC)C(=O)N(C)[C@@H](C)C(=O)N3CC[C@H]3C(=O)N(CC)[C@@H](Cc3ccc(C(F)(F)F)cc3)C(=O)N(C)CC(=O)N[C@@H](CCc3cc(F)c(C(F)(F)F)c(F)c3)C(=O)N2C1 [Compound 731] (cyclo([Ac4c][NMeI][NMedβ3hAla][NMeL]I[NMeA][Aze][NEtPhe(4-CF3)][Sar][hPhe(3,5-F2-4-CF3)][Hyp](Et)))	≤ 0.02 µM	0.0035 µM
CC[C@H](C)[C@@H]1NC(=O)[C@H](CC(C)C)N(C)C(=O)C[C@@H](C(=O)N2CCCCC2)N(C)C(=O)[C@H](C(C)C)N(C)C(=O)[C@H](C(C)C)NC(=O)[C@@H]2CCCN2C(=O)[C@H](CCc2ccc(C(F)(F)F)c(Cl)c2)NC(=O)CN(C)C(=O)[C@H](CC2CCCCC2)N(C)C(=O)[C@@H]2CCN2C(=O)[C@H](C)N(C)C1=O [Compound 741] ([NMeL]I[NMeA][Aze][NMeCha][Sar][hPhe(3-Cl-4-CF3)]PV[NMeV][NMeD]-Piperidide; lactam N-11)	> 0.5 µM	0.086 µM
C=CC[C@@H]1NC(=O)[C@H](CC(C)C)N(C)C(=O)C[C@@H](C(=O)N2CCCCC2)N(C)C(=O)[C@H](C(C)C)N(C)C(=O)C2(CCCC2)NC(=O)[C@@H]2CCCN2C(=O)[C@H](CCc2ccc(C(F)(F)F)c(Cl)c2)NC(=O)CN(C)C(=O)[C@H](CC2CCCCC2)N(C)C(=O)[C@@H]2CCN2C(=O)[C@H](C)N(C)C1=O [Compound 745] ([NMeL][AllylGly][NMeA][Aze][NMeCha][Sar][hPhe(3-Cl-4-CF3)]P[Ac5c][NMeV][NMeD]-Piperidide; lactam N-11)	> 0.5 µM	0.029 µM
CCCC[C@@H]1NC(=O)[C@H](CCc2ccc(C(F)(F)F)c(Cl)c2)NC(=O)CN(C)C(=O)[C@H](CC2CCCCC2)N(C)C(=O)[C@@H]2CCN2C(=O)CN(C)C(=O)[C@H]([C@@H](C)CC)NC(=O)[C@@H]2CCCCN2C(=O)C[C@@H](C(=O)N2CCCCC2)N(C)C(=O)[C@H](CC(C)C)NC(=O)C(C)(C)N(C)C1=O [Compound 760] ([Pip]I[Sar][Aze][NMeCha][Sar][hPhe(3-Cl-4-CF3)][Nle][NMeAib]L[NMeD]-Piperidide; lactam N-11)	> 0.5 µM	0.0052 µM
C#CC[C@H]1C(=O)N(C)[C@H](C(=O)N2CCCCC2)CC(=O)N(C)[C@@H](CC(C)C)C(=O)N[C@@H]([C@@H](C)CC)C(=O)N(C)[C@@H](C)C(=O)N2CC[C@H]2C(=O)N(C)[C@@H](CC2CCCCC2)C(=O)N(C)CC(=O)N[C@@H](CCc2ccc(C(F)(F)F)c(Cl)c2)C(=O)N2CCC[C@H]2C(=O)NC2(CCCC2)C(=O)N1C [Compound 766] ([NMeL]I[NMeA][Aze][NMeCha][Sar][hPhe(3-Cl-4-CF3)]P[Ac5c][NMePra][NMeD]-Piperidide; lactam N-11)	> 0.5 µM	0.13 µM
